{"source": "patent US20150018403A1", "about": "“FLUORENE-AMIDE COMPOUNDS AND PHARMACEUTICAL USE THEREOF” (JAPAN TOBACCO INC., priority 2013, published 2015)", "key": {"[1]": {"test": "Metabolic stability test in human liver microsome", "assay_type": "in vitro ADME", "conditions": "37° C., 5 μM", "description": "Human liver microsome (manufactured by Xenotech, H0620, final concentration (after dilution), 0.2 mg protein/mL) was suspended in 100 mM potassium phosphate buffer (pH 7.4, containing β-nicotinamide adenine dinucleotide phosphate: 1.3 mM, D-glucose-6-phosphate: 3.3 mM, magnesium chloride: 3.3 mM, glucose-6-phosphate dehydrogenase: 0.45 U/mL), and further mixed with a test compound dissolved in MeCN/DMSO (95/5) (final concentration 5 μM). The mixture was incubated at 37° C. for 10 min and 60 min, acetonitrile containing formic acid (final concentration 0.1%) was added, and the mixture was centrifuged. The test compound (unmodified) in the supernatant was measured by high performance liquid chromatography/mass spectrometry (LC/MS) (manufactured by Waters, LC: Acquity UPLC, MS:SQ Detector or TQ Detector). The residual ratio (%) was calculated from the obtained measurement value."}, "[2]": {"biological_target": "T1, hERG current (hERG-transfected HEK293 cells) (Homo sapiens, UniProt Q12809)", "T1 construct": "host or cells: HEK293", "T1 sequence (Q12809 whole entry)": "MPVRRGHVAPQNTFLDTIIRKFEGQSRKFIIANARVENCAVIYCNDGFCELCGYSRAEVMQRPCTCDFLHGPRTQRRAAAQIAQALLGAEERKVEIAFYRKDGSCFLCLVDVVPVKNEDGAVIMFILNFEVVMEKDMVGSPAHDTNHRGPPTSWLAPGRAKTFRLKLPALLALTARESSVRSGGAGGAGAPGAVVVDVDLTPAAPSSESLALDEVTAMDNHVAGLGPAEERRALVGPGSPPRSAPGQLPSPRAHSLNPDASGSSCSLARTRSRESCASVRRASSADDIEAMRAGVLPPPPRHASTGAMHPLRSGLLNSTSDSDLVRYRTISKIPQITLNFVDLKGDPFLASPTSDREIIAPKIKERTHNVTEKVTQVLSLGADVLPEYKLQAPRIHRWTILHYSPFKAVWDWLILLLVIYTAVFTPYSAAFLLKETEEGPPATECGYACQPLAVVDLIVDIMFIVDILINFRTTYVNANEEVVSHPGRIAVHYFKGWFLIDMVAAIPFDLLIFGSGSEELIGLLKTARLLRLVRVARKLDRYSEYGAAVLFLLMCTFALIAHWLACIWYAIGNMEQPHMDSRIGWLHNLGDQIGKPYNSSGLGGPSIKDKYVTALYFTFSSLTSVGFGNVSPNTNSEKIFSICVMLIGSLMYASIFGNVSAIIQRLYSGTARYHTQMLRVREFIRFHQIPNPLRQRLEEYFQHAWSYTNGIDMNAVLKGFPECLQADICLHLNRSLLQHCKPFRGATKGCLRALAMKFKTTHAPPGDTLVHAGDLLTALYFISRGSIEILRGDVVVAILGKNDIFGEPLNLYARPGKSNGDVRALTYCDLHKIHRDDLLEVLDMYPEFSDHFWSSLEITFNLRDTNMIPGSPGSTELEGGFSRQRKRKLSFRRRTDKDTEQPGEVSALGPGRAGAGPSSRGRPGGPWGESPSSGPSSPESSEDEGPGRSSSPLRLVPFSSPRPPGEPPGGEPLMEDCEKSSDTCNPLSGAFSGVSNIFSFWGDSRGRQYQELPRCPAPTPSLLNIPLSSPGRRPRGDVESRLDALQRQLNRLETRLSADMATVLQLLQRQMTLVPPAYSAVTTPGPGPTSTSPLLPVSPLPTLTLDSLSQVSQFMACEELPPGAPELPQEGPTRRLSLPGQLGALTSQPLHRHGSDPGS", "test": "hERG whole cell patch clamp test", "assay_type": "cell-based", "conditions": "whole cell patch clamp, hERG-transfected HEK293 cells", "description": "(§1) Using human ether-a-go-go related gene (hERG)-transfected HEK293 cells (Cytomyx Limited), an influence on hERG current was examined according to the whole cell patch clamp technique. The hERG-transfected HEK293 cells were passaged using a CO2 incubator (BNA-111, TABAI ESPEC CORP.) under the set conditions of 37° C., 5% CO2, saturated humidity. Culture containers used were Collagen Type I Coated 75 cm^2 flask (4123-010, AGC TECHNO GLASS CO., Ltd.) and Collagen Type I Coated 35 mm culture dish (4000-010, AGC TECHNO GLASS CO., Ltd.). The culture medium used was E-MEM (Eagle Minimum Essential Medium (Earle's Salts, Nikken biomedical laboratory) added with 10% FCS (Fetal bovine serum, BioWest, L.L.C.) and 1% MEM Non-Essential Amino Acids Solution (NEAA, Invitrogen Corporation). Geneticin for the selection of hERG gene expressing cells was added thereto to a concentration of 400 μg/mL. As the cells for the measurement, 3×10^4 hERG-transfected HEK293 cells were plated on a 35 mm culture dish 4 to 7 days before measurement of the hERG current. The culture dish produced for the measurement contained the above-mentioned culture medium without geneticin (Invitrogen Corporation).\n(§2) The highest evaluation concentration of each compound was determined from the highest concentration at which precipitation was not found in the standard extracellular fluid (NaCl: 140 mmol/L, KCl: 2.5 mmol/L, MgCl2: 2 mmol/L, CaCl2: 2 mmol/L, HEPES: 10 mmol/L, glucose: 10 mmol/L (adjusted to pH 7.4 with Tris-base)). As the application method, each solution to be applied was ejected from a Y-tube having a tip diameter of about 0.25 mm, which was adjacent (about 2 mm) to the cells, and applied to the cells. The ejection rate was about 0.4 mL/min.\n(§3) The experiment was performed at room temperature under a phase contrast microscope. The 35 mm culture dish plated with the cells was set on a measurement apparatus, and the standard extracellular fluid was continuously applied to the cells from the Y-tube. A glass electrode for the measurement was filled with an intracellular fluid (Potassium Gluconate: 130 mmol/L, KCl: 20 mmol/L, MgCl2: 1 mmol/L, ATP-Mg: 5 mmol/L, EGTA: 3.5 mmol/L, HEPES: 10 mmol/L (adjusted to pH 7.2 with Tris-base)). A conventional whole cell patch clamp method was applied to the cells, and the maintenance electric potential was set to −80 mV. Under a fixed electric potential, the whole cell current was amplified by an amplifier for patch clamp (AXOPATCH-200B, Axon Instruments, Inc.), and the data was loaded into a computer (IMC-P642400, Intermedical Co., Ltd.) using a data acquisition analysis software (pCLAMP 9.2, Axon Instruments, Inc.).\n(§4) The measurement of the hERG current was performed in the following two steps. In both cases, the hERG current was initiated by giving a command potential (maintenance electric potential −80 mV, prepulse+20 mV, 1.5 sec, test-pulse −50 mV, 1.5 sec).\n(§5) Step (1): The above-mentioned command potential was given at 0.1 Hz for 2 min.\n(§6) Step (2): The above-mentioned command potential was subjected to P/3 subtraction of pCLAMP 9.2 to remove leak current. This was repeated three times and an average thereof was taken as hERG current.\n(§7) Subsequent to step (1), Step (2) was performed (about 3 min), and the maximum tail current obtained by applying a test-pulse to the hERG current obtained by the method of step (2) was taken as hERG current value. Hereafter, the operations of (1) and (2) were alternately repeated until completion of the experiment and the hERG current value was measured.\n(§8) Stable hERG current value was recorded three times (about 10 min), and the standard extracellular fluid was instantaneously exchanged with each application fluid. The hERG current value was measured three times (about 10 min) in the same manner during perfusion of the application fluid, and the current value obtained by the 3rd measurement was taken as hERG current value after perfusion of the application fluid. […]"}, "hERG": {"biological_target": "T2, hERG (Homo sapiens, UniProt Q12809)", "T2 construct": "host or cells: HEK293", "T2 sequence (Q12809 whole entry)": "as above", "test": "hERG whole cell patch clamp test", "assay_type": "cell-based", "conditions": "human, HEK293 cells transfected with hERG, pH 7.4; concentration 10 μmol/L; read-out: hERG inhibition rate (%)", "description": "as §1, §2, §3, §4, §5, §6, §7, §8"}, "human PDHK2 (hPDHK2)": {"biological_target": "T3, human PDHK2 (hPDHK2) (Homo sapiens, UniProt Q15119)", "T3 construct": "made in house; host or cells: Escherichia coli BL21(DE3), pET17b vector", "test": "Inhibitory action of PDHK2 activity in vitro (residual PDH activity after kinase reaction)", "assay_type": "biochemical", "description": "The inhibitory action of PDHK activity was assessed indirectly by measuring the residual PDH activity after kinase reaction in the presence of a test compound.\nIn the case of human PDHK2 (hPDHK2, Genbank Accession No. BC040478.1), modified hPDHK2 cDNA wherein FLAG-Tag sequence was added to the N terminus of hPDHK2 cDNA clone (pReceiver-M01/PDK2-GeneCopoeia) was prepared by PCR and cloned into a vector (pET17b-Novagen). The recombinant construct was transformed into Escherichia coli (DH5α-TOYOBO). The recombinant clones were identified, and plasmid DNA was isolated and subjected to the DNA sequence analysis. One clone which had the expected nucleic acid sequence was selected for expression work.\nFor expression of hPDHK2 activity, Escherichia coli strain BL21(DE3) cells (Novagen) were transformed with the pET17b vector containing modified hPDHK2 cDNA. The Escherichia coli were grown to an optical density 0.6 ([…]) at 30° C. Protein expression was induced by the addition of 500 μmol/L isopropyl-β-thiogalactopyranoside. The Escherichia coli were cultured at 30° C. for 5 hr and harvested by centrifugation. Resuspension of the Escherichia coli paste was disrupted by a microfluidizer. FLAG-Tagged protein was purified using FLAG affinity gel. The gel was washed with 20 mmol/L HEPES-NaOH, 500 mmol/L sodium chloride, 1% ethylene glycol, and 0.1% Pluronic F-68 (pH 8.0), and the binding protein was eluted with 20 mmol/L HEPES-NaOH, 100 μg/mL FLAG peptide, 500 mmol/L sodium chloride, 1% ethylene glycol, and 0.1% Pluronic F-68 (pH 8.0). The eluted fractions containing FLAG-Tagged protein were pooled, dialyzed against 20 mmol/L HEPES-NaOH, 150 mmol/L sodium chloride, 0.5 mmol/L EDTA, 1% ethylene glycol, and 0.1% Pluronic F-68 (pH 8.0), and preserved at −80° C.\n0.05 U/mL PDH and 0.8 μg/mL hPDHK2 were mixed in a buffer (50 mmol/L 3-morpholinopropanesulfonic acid (pH 7.0), 20 mmol/L dipotassium hydrogen phosphate, 60 mmol/L potassium chloride, 2 mmol/L magnesium chloride, 0.4 mmol/L EDTA, and 0.2% Pluronic F-68, 2 mmol/L dithiothreitol), and the mixture was incubated at 4° C. overnight to obtain a PDH/hPDHK2 complex. The test compounds were diluted with DMSO. […] DMSO (1.5 μL) was added to control wells instead of the test compound. […] The mixture was incubated at room temperature for 90 min, and the residual PDH activity was measured. The absorbance at 340 nm before and after PDH reaction was measured using a microplate reader to detect NADH produced by the PDH reaction. The hPDHK2 inhibition rate (%) of the test compound was calculated from the formula [{(PDH activity of test compound−PDH activity of control)/PDH activity of blank−PDH activity of control)}×100]."}, "[3]": {"test": "Metabolic stability test in rat liver microsome", "assay_type": "in vitro ADME"}}}
{"smiles": "NC(=O)Cn1cc(-c2cc(OCCC34CC5CC(CC(O)(C5)C3)C4)cc3c2-c2ccccc2[C@]3(O)C(F)(F)F)cn1", "note": "[compound (A), 2-(4-{(9R)-9-Hydroxy-2-[2-(3-hydroxyadamantan-1-yl)ethoxy]-9-(trifluoromethyl)-9H-fluoren-4-yl}-1H-pyrazol-1-yl)acetamide, reference compound]", "values": [{"measurement": "stability in liver microsome (residual ratio %)", "setting": "[1]; 10 min", "value": 34.8, "unit": "%"}, {"measurement": "stability in liver microsome (residual ratio %)", "setting": "[1]; 60 min", "value": 0.0, "unit": "%"}, {"measurement": "IC50", "setting": "[2]", "value": "> 10000", "unit": "nM"}, {"measurement": "inhibition at 10 μmol/L", "setting": "hERG", "value": 11.8, "unit": "%"}, {"measurement": "IC50", "setting": "human PDHK2 (hPDHK2)", "value": 5.1, "unit": "nM"}, {"measurement": "stability in liver microsome (residual ratio %)", "setting": "[3]; 10 min", "value": 24.8, "unit": "%"}, {"measurement": "stability in liver microsome (residual ratio %)", "setting": "[3]; 60 min", "value": 0.0, "unit": "%"}]}
